Reference: ChEMBL document CHEMBL5634124, “Discovery and optimization of indirubin derivatives as novel ferroptosis inducers for the treatment of colon cancer” (Eur J Med Chem, 2023)

Tested on: HCT-116
Assay: Cytotoxicity against human HCT-116 cells assessed as inhibition of cell viability incubated for 48 hrs by CCK8 assay
Format: functional, cell-based
Settings: HCT-116, 48 h

## O=C1Nc2ccccc2/C1=C1/Nc2ccc(C(=O)NCCC3CCN(C(=O)CCl)CC3)cc2C1=O
  IC50: 0.72 µM

## C=CC(=O)CCCCC(=O)c1ccc2c(c1)C(=O)/C(=C1/C(=O)Nc3ccccc31)N2
  IC50: 14.1 µM

## C#CC(=O)N1CCN(C(=O)c2ccc3c(c2)C(=O)/C(=C2/C(=O)Nc4ccccc42)N3)CC1
  IC50: 6.39 µM

## O=C(CCl)CCC(=O)c1ccc2c(c1)C(=O)/C(=C1/C(=O)Nc3ccccc31)N2
  IC50: > 20 µM

## C#CC(=O)N1CCC(c2ccc(NC(=O)c3ccc4c(c3)C(=O)/C(=C3/C(=O)Nc5ccccc53)N4)cc2)CC1
  IC50: > 20 µM

## O=C1Nc2ccccc2/C1=C1/Nc2ccc(C(=O)NCCN3CCN(C(=O)CCl)CC3)cc2C1=O
  IC50: 2.27 µM

## O=C(CCl)CCCCCC(=O)c1ccc2c(c1)C(=O)/C(=C1/C(=O)Nc3ccccc31)N2
  IC50: 2.18 µM

## C#CC(=O)CCC(=O)c1ccc2c(c1)C(=O)/C(=C1/C(=O)Nc3ccccc31)N2
  IC50: > 20 µM

## C#CC(=O)CCCCC(=O)c1ccc2c(c1)C(=O)/C(=C1/C(=O)Nc3ccccc31)N2
  IC50: 3 µM

## C=CC(=O)CCCC(=O)c1ccc2c(c1)C(=O)/C(=C1/C(=O)Nc3ccccc31)N2
  IC50: > 20 µM

## C=CC(=O)N1CCN(C(=O)c2ccc3c(c2)C(=O)/C(=C2/C(=O)Nc4ccccc42)N3)CC1
  IC50: 17.6 µM

## C=CC(=O)CCCCCC(=O)c1ccc2c(c1)C(=O)/C(=C1/C(=O)Nc3ccccc31)N2
  IC50: 13.1 µM

## C=CC(=O)N1CCN(CCNC(=O)c2ccc3c(c2)C(=O)/C(=C2/C(=O)Nc4ccccc42)N3)CC1
  IC50: 17.5 µM

## C#CC(=O)N1CCC(CCNC(=O)c2ccc3c(c2)C(=O)/C(=C2/C(=O)Nc4ccccc42)N3)CC1
  IC50: 1.85 µM

## C=CC(=O)CCC(=O)c1ccc2c(c1)C(=O)/C(=C1/C(=O)Nc3ccccc31)N2
  IC50: > 20 µM

## O=C1Nc2ccccc2/C1=C1/Nc2ccc(C(=O)Nc3ccc(C4CCN(C(=O)CCl)CC4)cc3)cc2C1=O
  IC50: > 20 µM
